Measured values as given in paper PMC8330742, “New benzothieno[2,3-c]pyridines as non-steroidal CYP17 inhibitors: design, synthesis, anticancer screening, apoptosis induction, and in silico ADME profile studies” (Journal of Enzyme Inhibition and Medicinal Chemistry, 2021).

Experiments:
[1] = tested on: prostate cancer cell line (PC-3); assay: MTT cytotoxicity assay; type: cell-based, human; details: Homo sapiens
Method: The MTT method for monitoring in vitro cytotoxicity was used with multiwell plates. Three human cell lines, namely prostate cancer cell line (PC-3), renal cancer cell line (UO-31), and breast cancer cell line (MCF-7) were obtained from the American Type Culture Collection ATCC, Manassas, VA, USA). The cells were trypsinized and seeded in 96 well plates with a density of 1.2 − 1.8 × 10,000 cells/well for 24 h at 37 °C. After treating the cells with five concentrations of compound 5c (0.01, 0.1, 1, 10, 100 µM), an MTT solution (Sigma Co., St. Louis, MO, USA) (5 mg/mL in phosphate buffer solution) was applied to each well and […]. The plates were cultivated in 5% CO2 for 4 h at 37 °C. Successively, the remaining formazan crystals were dissolved in 100 µl of DMSO, and the absorbance was determined with the ROBONIK P2000 spectrophotometer at a wavelength of 570 nm. The obtained values were analysed using Gen5 software (BioTek, UK). The proliferation percentage in each treated cell line was standardised based on their control wells. Both tests have been conducted in triplicate. The IC50 values were calculated using sigmoidal dose-response curve fitting models. […] Each test included a blank containing a complete medium without cells.

CYP17 = details: Figure 1, known CYP17 inhibitors; cited from earlier work
plasma testosterone = assay: Testosterone ELISA assay in mice prostate cancer model; type: in vivo; details: 5 mg/kg i.p., 5 days a week, ELISA, 5 mg/kg
Method: (§1) A total of 16 mice from the TRAMP/FVB background ([…], male, average 45 days, average weight […], mice with prostate cancer) were taken and divided into 2 groups with 8 animals in each group. One group of mice was given a drug in 0.2 ml of DMSO and phosphate-buffered saline (1:10) ratio (5 mg/kg body weight, i.p., 5 days a week). The control group animals were treated with 0.2 ml of DMSO and phosphate-buffered saline (1:10) ratio. A total of eight mice, four animals from each group, were examined at 13 weeks of age, and the remaining animals from each group were examined at 20 weeks for prostate tumour development. Treatment was stopped 24 h before killing the animals.
The BioVendor mouse/rat testosterone ELISA assay is a competitive immunoassay for the measurement of testosterone in rat and mouse serum or plasma based on the principle of competitive binding. An unknown amount of testosterone present in the sample (plasma or serum) and a known amount of testosterone conjugated to horseradish peroxidase compete for the binding sites of testosterone antiserum coated to the wells of a microplate. The sample was incubated with the microplate for 1 h, then washed four times. The HRP substrate solution was added followed by the stop solution. Colour change has been observed, and the optical density was measured at 450 nm.
Assay procedures: Sufficient number of microplate wells were prepared to accommodate standard and samples in duplicates. The standard, sample, and control (10 µL each) were dispensed with new disposable tips into appropriate wells. Incubation buffer 100 µL was dispensed into each well. Afterward, enzyme conjugate (50 µL) was added to each well and incubated for 60 min at room temperature on a microplate mixer. The content of the wells was discarded, and the wells were rinsed 4 times with diluted wash solution (300 µL per well). The substrate solution (200 µL) was added to each well and incubated in the dark without shaking for 30 min. The reaction was stopped by adding a stop solution (2 N hydrochloric acid solution, 50 µL) to each well. The absorbance of each well was determined at 450 nm.

CYP17 enzyme = CYP17 enzyme ELISA in mice prostate cancer model; type: in vivo; details: 5 mg/kg i.p., 5 days a week, ELISA of tissue (Mice testis)
Method: as §1
BioSource 2704060 96 assay kit is a sandwich enzyme immunoassay for in vitro quantitative measurement of CYP17 enzyme activity in mouse tissue homogenates, cell lysates, cell culture supernatant, and other biological fluids. Tested tissues were rinsed in ice-cold PBS to remove excess blood and weighed before homogenisation. The tissues were minced and homogenised in fresh lysis buffer with a glass homogeniser. (catalog: IS007, different lysis buffer needs to be chosen based on subcellular location of the target protein) (w:v = 1:20–1:50, e.g. 1 ml lysis buffer is added in 20–50 mg tissue sample) The resulting suspension was sonicated with an ultrasonic cell disrupter till the solution was clarified. The homogenates were centrifuged for 5 min at 10,000 × g, and the supernatant was collected. An Aliquot was assayed and stored at ≤ −20 °C.
The assay sample and standard were incubated together with CYP-HRP conjugate in an appropriate number of microplates pre-coated with an antibody specific for the CYP17 enzyme for 1 h. After the incubation period, the wells were decanted and washed five times. The wells were then incubated with a substrate for the HRP enzyme. […] Colour intensity was measured spectrophotometrically at 450 nm in a microplate reader. […]
Assay procedures: Wells for a standard, blank, and sample were prepared. […] The absorbance was measured immediately at 450 nm.

WI-38 human cell line = assay: In vitro cytotoxicity on WI-38 human cell line (MTT); type: cell-based; details: WI-38 normal human cell line
Method: Cell Line cells were obtained from American Type Culture Collection and were cultured using DMEM (Invitrogen/Life Technologies) supplemented with 10% FBS (Hyclone), 10 µg/ml of insulin (Sigma), and 1% penicillin-streptomycin. All of the other chemicals and reagents were obtained from Sigma or Invitrogen. Plate cells were incubated (cells density 1.2–1.8 × 10,000 cells/well) in a volume of 100 µL complete growth medium and 100 ul of the tested compound per well in a 96-well plate for 24 h before the MTT assay. The cultures were removed from the incubator into a laminar flow hood or other sterile work area followed by the addition of reconstituted MTT in an amount equal to 10% of the culture medium volume, then incubated for an additional 2 h. After the incubation period, cultures were removed from the incubator, and the resulted formazan crystals were dissolved by adding an amount of MTT solubilisation solution [M-8910] equal to the original culture medium volume, then the absorbance at a wavelength of 570 nm was measured. Finally, the IC50 of the tested compound compared to the reference was calculated using GraphPad Prism software.

[2] = listed as Abireratone reference
[3] = listed as abiraterone reference

SMILES | IC50 [1] [µM] | IC50 (CYP17) [µM] | Plasma testosterone aver. conc. (plasma testosterone; [2]) [nM] | Plasma testosterone aver. conc. (plasma testosterone; [3]) [nM] | CYP17 enzyme aver. conc. (CYP17 enzyme; [2]) [nM] | CYP17 enzyme aver. conc. (CYP17 enzyme; [3]) [nM] | IC50 (WI-38 human cell line) [µM]
C[C@]12CC[C@H](O)CC1=CC[C@@H]1[C@@H]2CC[C@]2(C)C(c3cccnc3)=CC[C@@H]12 [Abiraterone, abiraterone, reference compound] | 8.3 | 0.002 | 13.79 | 13.79 ± 0.33 | 10.72 | 10.72 ± 0.17 | 
CN[C@@H]1C[C@H]2O[C@@](C)([C@@H]1OC)n1c3ccccc3c3c4c(c5c6ccccc6n2c5c31)C(=O)NC4 [staurosporine, reference compound] | 5.1 |  |  |  |  |  | 19.2
